Reference: PubChem BioAssay (NCI)
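Five concentrations, 48 hours, 96-well plates. GI50: concentration for 50% inhibition of growth. At the TGI there is no net growth.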

Assays:
Test in all cases: NCI-60 cell line screen, 48 h
SF-539 CNS = tested on: SF-539 CNS
UO-31 renal = tested on: UO-31 renal
SN12C renal = tested on: SN12C renal
SNB-19 CNS = tested on: SNB-19 CNS
HOP-62 NSCLC = tested on: HOP-62 NSCLC
EKVX NSCLC = tested on: EKVX NSCLC
MDA-MB-231 breast = tested on: MDA-MB-231 breast
RXF 393 renal = tested on: RXF 393 renal
OVCAR-8 ovarian = tested on: OVCAR-8 ovarian
MOLT-4 leukemia = tested on: MOLT-4 leukemia

Compound	GI50 (SF-539 CNS) [µM]	TGI (SF-539 CNS) [µM]	GI50 (UO-31 renal) [µM]	TGI (UO-31 renal) [µM]	GI50 (SN12C renal) [µM]	TGI (SN12C renal) [µM]	GI50 (SNB-19 CNS) [µM]	TGI (SNB-19 CNS) [µM]	GI50 (HOP-62 NSCLC) [µM]	TGI (HOP-62 NSCLC) [µM]	GI50 (EKVX NSCLC) [µM]	TGI (EKVX NSCLC) [µM]	GI50 (MDA-MB-231 breast) [µM]	TGI (MDA-MB-231 breast) [µM]	GI50 (RXF 393 renal) [µM]	TGI (RXF 393 renal) [µM]	TGI (OVCAR-8 ovarian) [µM]	TGI (MOLT-4 leukemia) [µM]	GI50 (OVCAR-8 ovarian) [µM]	GI50 (MOLT-4 leukemia) [µM]
CN(C)c1ccc(Nc2cc(-c3cccc(OC(F)(F)F)c3)nc3ccc(N4CCCC4)cc23)cc1	1.77	3.36	1.77	3.17	1.78	3.5	3.32	13.7	1.67	3.22	2.16	6.05	1.76	3.23	1.66	3.47				
C[C@]1(CO)CCC[C@@]2(C)C1CC[C@H]1CC3C[C@]12CC[C@]3(C)O (some centres not stated)		> 100				> 100		> 100		> 100						> 100	> 100	> 100		
CCC1CCc2nc3sc(C(=O)Nc4cccc(F)c4)c(N)c3cc2C1 (configuration not stated)	> 100	> 100	> 100	> 100	> 100	> 100	> 100	> 100	> 100	> 100			> 100	> 100			> 100	> 100	> 100	39.8
COC1OC(COCc2ccc(Cl)cc2)C(OCc2ccc(Cl)cc2)C1N=[N+]=[N-] (configuration not stated)				> 100		> 100		> 100				> 100				> 100	> 100	> 100		
Clc1ccc(C2SCc3nc4ccccc4n32)cc1Cl (configuration not stated)		32.3				26		22.4		27.8		28.1				15.7	26.9	> 100		
COc1cc2c3c(c1OC)-c1c(ccc4c1OCO4)CC3(C#N)N(C(=O)c1ccccc1)CC2 (configuration not stated)		> 100		> 100		> 100		> 100		> 100		> 100				> 100	> 100	> 100		
CC(=O)c1ccc(NC(=O)C(=O)Nn2c(=S)[nH]c3ccccc3c2=O)cc1		> 100		> 100		> 100		> 100		> 100		> 100				> 100	> 100	> 100		
CC1C[C@@H]2C(=O)NC(=O)[C@@H]2c2c1c1ccccc1n2C (some centres not stated)		> 100		> 100		> 100		> 100		> 100		> 100				> 100	> 100	> 100		
O=C(Nc1nc2ncn(CCNCc3ccccc3)c2c(=O)[nH]1)c1ccccc1		> 100		> 100		> 100				> 100		> 100				> 100	> 100			
Cn1ccnc1C(=O)/C=C/c1ccccc1	2.18	4.78	4.69	71.4	3	17.3			4.44	14.4	11.6	25.1	3.39	16.8			6.94	15.6	2.59	3.35
O=[N+]([O-])c1cccc(C2ON2C2CCCCC2)c1 (configuration not stated)		46.3		49.7		36		84.5		81.3		> 100					32.8	64.7		
CC(=Nc1ccccc1)C1=C(O)C(Cc2ccccc2)NC1=O (configuration not stated)	0.0439	0.501	0.0832	> 100	0.227	> 100	0.0765	> 100	0.0435		0.0798	> 100	0.224	> 100			> 100	> 100	0.0945	0.0753
Cc1cc(C)nc(NS(=O)(=O)c2ccc(Nc3c4ccc(Cl)cc4nc4c(C(=O)Nc5ccc(S(N)(=O)=O)cc5)cccc34)cc2)n1		37.9		39.2		30.2		93.9		37.8		48.8				26.7	37.7	39.7		
COC(=O)c1c(N)n[nH]c1N		> 100		> 100		> 100		> 100		> 100		> 100				> 100	> 100	> 100		
CCC1CN2CCc3c([nH]c4ccccc34)C2C[C@@H]1CC(=O)N(C)C (some centres not stated)		> 100		> 100		> 100		> 100		> 100		> 100				> 100	> 100	> 100		
CCOC(=O)C1=C(C)N(c2ccc(C)cc2)C2=C(C(=O)N(c3ccccc3)C2c2ccccc2)C1c1ccccc1 (configuration not stated)		> 25		> 25		> 25		> 25		> 25		> 25				> 25	> 25	> 25		
O=C(Cn1ccnc1[N+](=O)[O-])c1ccc(F)cc1		> 100		> 100		> 100		> 100		> 100		> 100				> 100	> 100	> 100		
CCCCCCCCCCCCCP(=O)(O)OCC		> 100		> 100		> 100		> 100		> 100		> 100				> 100	> 100			
CCc1cccc(C(C)C)c1N1C(=O)C(=O)C(c2nc3ccccc3s2)C(=O)C1=O		> 50		> 50		> 50		> 50		> 50		> 50				> 50	> 50	42.7		
Fc1ccccc1C1CC(c2ccc3ccccc3c2)=Nc2ccccc2S1 (configuration not stated)		> 100		> 100		> 100		> 100		> 100		> 100				> 100	> 100	> 100		
CC1(C)Cc2cc(C(=O)O)c3c(c2C1=O)COCC3		> 100		> 100		> 100		> 100		> 100		> 100				> 100	> 100	> 100		
CCCCCCCCCc1cccc(N2C(N)=NC(N)=NC2(C)C)c1		2.1		> 42.4		2.33				1.24		10.5		3.37		> 100	16			
